ChEMBL document CHEMBL1201862, “PubChem BioAssay data set” (2004)
Calls of active or inactive are those of the source.

Experiments:
[1] = target: T1, Low molecular weight phosphotyrosine protein phosphatase (Homo sapiens, UniProt P24666); format: functional; details: read-out: IC50_Mean;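 also: Dose-response confirmation assay measuring inhibition of LMPTP enzyme activity by fluorescence intensity read-out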
T1 sequence (P24666 whole entry): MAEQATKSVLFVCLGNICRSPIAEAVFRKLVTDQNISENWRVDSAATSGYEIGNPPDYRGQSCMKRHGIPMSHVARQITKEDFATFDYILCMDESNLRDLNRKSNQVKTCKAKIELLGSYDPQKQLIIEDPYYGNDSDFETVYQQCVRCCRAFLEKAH

[2] = target: T2, Short transient receptor potential channel 4 (Mus musculus, UniProt Q9QUQ5); experiment: block of DAMGO-driven TRPC4 calcium entry – cell-based, HEK293 TRPC4/mu-opioid, Fluo-4 calcium, dose response (AID 434942); format: functional;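 also: potency of inhibitors blocking the TRPC4 calcium response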
T2 sequence (Q9QUQ5 whole entry): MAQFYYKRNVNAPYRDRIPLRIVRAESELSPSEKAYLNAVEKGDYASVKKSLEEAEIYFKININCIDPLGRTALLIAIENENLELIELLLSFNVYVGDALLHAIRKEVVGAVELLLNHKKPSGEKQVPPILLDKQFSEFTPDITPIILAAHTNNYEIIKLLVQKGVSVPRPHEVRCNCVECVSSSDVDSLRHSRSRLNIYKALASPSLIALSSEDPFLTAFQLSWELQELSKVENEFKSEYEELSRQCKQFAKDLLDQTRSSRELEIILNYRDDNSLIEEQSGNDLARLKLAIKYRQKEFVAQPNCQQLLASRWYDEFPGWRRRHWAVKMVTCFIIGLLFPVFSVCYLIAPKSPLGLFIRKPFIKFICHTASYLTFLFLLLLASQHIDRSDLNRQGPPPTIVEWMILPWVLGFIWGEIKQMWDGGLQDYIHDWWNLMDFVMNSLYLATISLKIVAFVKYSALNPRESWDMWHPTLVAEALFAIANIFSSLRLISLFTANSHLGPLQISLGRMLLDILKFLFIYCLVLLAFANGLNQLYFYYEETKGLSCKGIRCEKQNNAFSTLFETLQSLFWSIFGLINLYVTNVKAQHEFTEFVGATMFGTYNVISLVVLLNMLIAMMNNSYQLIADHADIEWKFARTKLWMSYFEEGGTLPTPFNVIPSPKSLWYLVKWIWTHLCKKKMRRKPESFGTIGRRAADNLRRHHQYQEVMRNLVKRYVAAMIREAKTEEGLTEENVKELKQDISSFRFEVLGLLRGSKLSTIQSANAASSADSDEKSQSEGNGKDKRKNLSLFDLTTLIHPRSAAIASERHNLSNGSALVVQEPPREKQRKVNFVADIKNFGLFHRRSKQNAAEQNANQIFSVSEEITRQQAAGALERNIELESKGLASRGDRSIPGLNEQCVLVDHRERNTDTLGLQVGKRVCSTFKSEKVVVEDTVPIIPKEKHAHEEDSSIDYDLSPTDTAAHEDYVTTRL

Cytochrome P450 2D6 = Cytochrome P450 2D6 (Homo sapiens, UniProt P10635);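 also: CYP2D6 member of a cytochrome P450 panel assay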
Chain of Cytochrome P450 2D6 (P10635 whole entry): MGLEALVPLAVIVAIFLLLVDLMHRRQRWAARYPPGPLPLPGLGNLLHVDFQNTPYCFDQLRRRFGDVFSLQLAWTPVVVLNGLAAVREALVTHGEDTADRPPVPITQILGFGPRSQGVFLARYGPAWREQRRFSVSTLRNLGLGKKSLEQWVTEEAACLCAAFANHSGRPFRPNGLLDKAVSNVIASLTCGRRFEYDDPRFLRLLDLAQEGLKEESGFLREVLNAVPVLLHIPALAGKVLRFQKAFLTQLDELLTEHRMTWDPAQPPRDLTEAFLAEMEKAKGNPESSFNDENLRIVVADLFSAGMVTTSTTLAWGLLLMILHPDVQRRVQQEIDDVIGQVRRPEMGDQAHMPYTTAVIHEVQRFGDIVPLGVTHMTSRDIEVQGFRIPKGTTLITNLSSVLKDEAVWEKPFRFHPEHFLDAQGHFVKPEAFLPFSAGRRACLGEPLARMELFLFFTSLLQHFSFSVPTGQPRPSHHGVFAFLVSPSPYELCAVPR

Cytochrome P450 1A2 = target: T3, Cytochrome P450 1A2 (Homo sapiens, UniProt P05177);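 also: PubChem cytochrome P450 panel assay, CYP1A2 panel member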
T3 sequence (P05177 whole entry): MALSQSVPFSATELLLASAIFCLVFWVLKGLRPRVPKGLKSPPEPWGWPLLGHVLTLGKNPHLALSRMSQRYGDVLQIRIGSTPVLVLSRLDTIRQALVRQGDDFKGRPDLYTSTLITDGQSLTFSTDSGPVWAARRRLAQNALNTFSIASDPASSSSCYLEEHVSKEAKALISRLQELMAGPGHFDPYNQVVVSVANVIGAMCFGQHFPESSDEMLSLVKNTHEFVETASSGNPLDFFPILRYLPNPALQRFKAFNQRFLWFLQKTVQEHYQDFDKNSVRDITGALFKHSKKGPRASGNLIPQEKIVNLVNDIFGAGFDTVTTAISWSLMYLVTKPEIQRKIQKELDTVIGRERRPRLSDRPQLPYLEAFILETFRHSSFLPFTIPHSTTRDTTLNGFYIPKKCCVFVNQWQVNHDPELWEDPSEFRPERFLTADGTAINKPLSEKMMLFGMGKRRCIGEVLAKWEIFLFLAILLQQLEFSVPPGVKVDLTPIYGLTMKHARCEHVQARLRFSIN

fMet-Leu-Phe receptor = target: T4, fMet-Leu-Phe receptor (Homo sapiens, UniProt P21462); experiment: formyl peptide receptor binders – dose response (AID 519); format: functional
T4 sequence (P21462 whole entry): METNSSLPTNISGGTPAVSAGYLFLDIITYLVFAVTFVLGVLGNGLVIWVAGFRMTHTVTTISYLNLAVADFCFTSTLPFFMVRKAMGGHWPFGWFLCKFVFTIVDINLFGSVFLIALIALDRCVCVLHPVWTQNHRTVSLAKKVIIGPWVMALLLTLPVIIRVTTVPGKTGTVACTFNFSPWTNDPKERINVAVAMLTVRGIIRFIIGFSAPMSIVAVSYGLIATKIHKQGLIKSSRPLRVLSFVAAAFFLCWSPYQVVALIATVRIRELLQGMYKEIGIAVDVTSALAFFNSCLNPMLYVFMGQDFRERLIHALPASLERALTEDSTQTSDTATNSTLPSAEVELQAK

Cytochrome P450 2C19 = Cytochrome P450 2C19 (Homo sapiens, UniProt P33261); experiment: Cytochrome panel assay with activity outcomes. Panel member name: p450-cyp2c19 Compounds with AC50 equal or less than 10 uM are considered active; format: functional; details: read-out: AC50
Chain of Cytochrome P450 2C19 (P33261 whole entry): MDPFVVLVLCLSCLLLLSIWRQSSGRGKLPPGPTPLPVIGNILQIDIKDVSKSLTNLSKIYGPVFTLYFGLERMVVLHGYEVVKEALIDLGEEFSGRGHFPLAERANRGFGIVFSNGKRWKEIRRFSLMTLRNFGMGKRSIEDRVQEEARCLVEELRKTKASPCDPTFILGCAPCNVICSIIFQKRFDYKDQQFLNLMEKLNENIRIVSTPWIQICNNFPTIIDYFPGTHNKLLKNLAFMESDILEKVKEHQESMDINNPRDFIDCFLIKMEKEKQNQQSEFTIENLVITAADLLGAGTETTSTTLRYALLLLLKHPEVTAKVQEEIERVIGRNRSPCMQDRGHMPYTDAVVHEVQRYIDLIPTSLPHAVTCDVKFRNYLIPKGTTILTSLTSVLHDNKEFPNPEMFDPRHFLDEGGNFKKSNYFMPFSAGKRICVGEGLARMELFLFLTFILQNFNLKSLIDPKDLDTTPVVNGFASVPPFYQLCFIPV

Streptokinase A = target: T5, Streptokinase A (Streptococcus pyogenes serotype M1, UniProt P10520); experiment: viability-normalized secreted streptokinase activity reduction – plasminogen activation absorbance, OD405, dose response (AID 1914); format: functional, Streptococcus pyogenes M1 GAS;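 also: secreted streptokinase activity via plasminogen activation per viability signal from cell pellet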
T5 sequence (P10520 whole entry): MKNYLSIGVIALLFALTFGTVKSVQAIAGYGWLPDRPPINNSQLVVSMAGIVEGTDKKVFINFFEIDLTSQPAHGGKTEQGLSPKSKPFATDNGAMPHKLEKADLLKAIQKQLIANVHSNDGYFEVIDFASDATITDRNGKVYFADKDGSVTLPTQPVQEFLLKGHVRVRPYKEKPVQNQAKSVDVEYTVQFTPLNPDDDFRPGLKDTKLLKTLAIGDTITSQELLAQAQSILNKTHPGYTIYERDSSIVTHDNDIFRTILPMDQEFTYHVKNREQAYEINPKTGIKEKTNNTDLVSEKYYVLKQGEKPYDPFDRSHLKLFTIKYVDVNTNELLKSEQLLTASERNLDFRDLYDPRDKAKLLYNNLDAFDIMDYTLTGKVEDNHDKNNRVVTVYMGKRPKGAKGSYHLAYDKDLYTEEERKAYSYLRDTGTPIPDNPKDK

[3] = tested on: Streptococcus sp. 'group A'; experiment: Streptococcus pyogenes SK(-)GAS viability under kanamycin – luminescence, BacTiterGlo, confirmation, counter-screen for streptokinase expression inhibitor project, dose response (AID 1900); format: functional, organism-based
Streptococcus = experiment: GAS UMAA2166 growth inhibition – luminescence, BacTiterGlo, counter-screen for streptokinase expression inhibitor project, dose response (AID 1915); format: functional, organism-based;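 also: potency for reduction of bacterial viability or growth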
Protein skinhead-1 = target: T6, Protein skinhead-1 (Caenorhabditis elegans, UniProt P34707); format: functional
T6 sequence (P34707 whole entry): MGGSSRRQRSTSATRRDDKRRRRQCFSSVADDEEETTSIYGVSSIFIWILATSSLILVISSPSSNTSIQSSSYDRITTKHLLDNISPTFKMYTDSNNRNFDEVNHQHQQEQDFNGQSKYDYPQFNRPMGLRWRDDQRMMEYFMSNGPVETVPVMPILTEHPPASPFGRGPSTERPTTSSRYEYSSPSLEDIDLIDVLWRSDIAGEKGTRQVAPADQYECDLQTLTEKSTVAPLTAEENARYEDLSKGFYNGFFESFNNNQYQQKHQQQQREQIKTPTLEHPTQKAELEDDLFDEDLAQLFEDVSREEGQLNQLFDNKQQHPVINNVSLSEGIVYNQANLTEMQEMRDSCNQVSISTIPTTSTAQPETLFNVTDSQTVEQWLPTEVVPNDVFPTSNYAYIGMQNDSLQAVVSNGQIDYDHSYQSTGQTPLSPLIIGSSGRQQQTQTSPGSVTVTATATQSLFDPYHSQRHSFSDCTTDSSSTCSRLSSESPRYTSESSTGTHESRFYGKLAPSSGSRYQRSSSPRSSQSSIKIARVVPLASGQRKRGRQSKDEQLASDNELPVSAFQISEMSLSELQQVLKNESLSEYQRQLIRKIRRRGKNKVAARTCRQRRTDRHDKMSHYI

[4] = target: T7, Corticotropin-releasing factor receptor 2/Corticotropin-releasing factor-binding protein (Homo sapiens, UniProt P24387+Q13324); experiment: activators of CRF receptor 2 with binding protein – uHTS hits, confirmation (AID 602473); format: functional; details: read-out: EC50_Mean
T7 sequence (Q13324 whole entry): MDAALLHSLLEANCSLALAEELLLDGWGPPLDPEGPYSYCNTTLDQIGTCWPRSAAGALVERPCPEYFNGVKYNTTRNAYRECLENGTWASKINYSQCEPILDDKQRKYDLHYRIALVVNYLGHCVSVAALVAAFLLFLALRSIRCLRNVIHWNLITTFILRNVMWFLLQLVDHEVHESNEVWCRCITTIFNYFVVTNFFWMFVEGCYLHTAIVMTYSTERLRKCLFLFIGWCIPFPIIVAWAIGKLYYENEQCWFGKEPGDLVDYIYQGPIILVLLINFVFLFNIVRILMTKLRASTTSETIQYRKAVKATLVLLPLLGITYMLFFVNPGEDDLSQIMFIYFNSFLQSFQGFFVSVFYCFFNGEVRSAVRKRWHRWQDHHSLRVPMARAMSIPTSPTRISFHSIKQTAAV
T7 sequence (P24387 whole entry): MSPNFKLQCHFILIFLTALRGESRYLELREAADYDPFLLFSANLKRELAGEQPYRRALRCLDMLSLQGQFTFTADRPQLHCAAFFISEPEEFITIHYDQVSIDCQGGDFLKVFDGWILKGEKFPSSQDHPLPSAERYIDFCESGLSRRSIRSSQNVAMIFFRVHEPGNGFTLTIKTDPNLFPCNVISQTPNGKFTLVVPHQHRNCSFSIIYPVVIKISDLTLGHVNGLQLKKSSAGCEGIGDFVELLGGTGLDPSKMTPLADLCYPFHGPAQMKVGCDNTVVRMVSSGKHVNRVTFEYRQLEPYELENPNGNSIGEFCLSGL

Nonstructural protein 1 = Nonstructural protein 1 (Influenza A virus, UniProt Q194T2); format: functional, Influenza A virus (A/California/07/2009(H1N1))
Chain of Nonstructural protein 1 (Q194T2 whole entry): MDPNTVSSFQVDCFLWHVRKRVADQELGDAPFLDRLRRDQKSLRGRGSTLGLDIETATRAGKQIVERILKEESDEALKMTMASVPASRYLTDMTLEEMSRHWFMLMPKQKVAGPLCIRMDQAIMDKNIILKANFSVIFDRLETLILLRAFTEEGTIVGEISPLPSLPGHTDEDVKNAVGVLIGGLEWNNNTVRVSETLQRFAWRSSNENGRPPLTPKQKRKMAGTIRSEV

[5] = target: T7, Corticotropin-releasing factor receptor 2/Corticotropin-releasing factor-binding protein; experiment: Dose Response confirmation of uHTS hits for small molecule antagonists of the CRF-binding protein and CRF-R2 receptor complex.; format: functional; details: read-out: IC50_Mean
Cytochrome P450 2C9 = Cytochrome P450 2C9 (Homo sapiens, UniProt P11712)
Chain of Cytochrome P450 2C9 (P11712 whole entry): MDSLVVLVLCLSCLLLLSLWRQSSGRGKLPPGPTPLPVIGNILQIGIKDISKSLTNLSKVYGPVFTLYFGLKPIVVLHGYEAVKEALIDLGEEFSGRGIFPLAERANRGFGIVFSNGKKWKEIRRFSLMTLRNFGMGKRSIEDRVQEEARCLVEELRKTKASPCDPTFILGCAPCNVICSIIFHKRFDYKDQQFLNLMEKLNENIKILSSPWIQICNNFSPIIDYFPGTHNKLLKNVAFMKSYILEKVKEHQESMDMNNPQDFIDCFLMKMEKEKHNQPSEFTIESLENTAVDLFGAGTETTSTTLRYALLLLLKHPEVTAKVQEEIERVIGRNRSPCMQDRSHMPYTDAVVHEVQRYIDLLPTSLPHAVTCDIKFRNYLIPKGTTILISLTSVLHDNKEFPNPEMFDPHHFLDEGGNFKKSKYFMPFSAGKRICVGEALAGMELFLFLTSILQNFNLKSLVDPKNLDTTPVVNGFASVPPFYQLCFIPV

Genome polyprotein = Genome polyprotein (dengue virus type 2, UniProt P29990); experiment: flavivirus cap methylation enzyme inhibition – biochemical, confirmation dose response, primary screen (AID 588689); format: functional
Chain of Genome polyprotein (P29990 2492-3391 limits assumed): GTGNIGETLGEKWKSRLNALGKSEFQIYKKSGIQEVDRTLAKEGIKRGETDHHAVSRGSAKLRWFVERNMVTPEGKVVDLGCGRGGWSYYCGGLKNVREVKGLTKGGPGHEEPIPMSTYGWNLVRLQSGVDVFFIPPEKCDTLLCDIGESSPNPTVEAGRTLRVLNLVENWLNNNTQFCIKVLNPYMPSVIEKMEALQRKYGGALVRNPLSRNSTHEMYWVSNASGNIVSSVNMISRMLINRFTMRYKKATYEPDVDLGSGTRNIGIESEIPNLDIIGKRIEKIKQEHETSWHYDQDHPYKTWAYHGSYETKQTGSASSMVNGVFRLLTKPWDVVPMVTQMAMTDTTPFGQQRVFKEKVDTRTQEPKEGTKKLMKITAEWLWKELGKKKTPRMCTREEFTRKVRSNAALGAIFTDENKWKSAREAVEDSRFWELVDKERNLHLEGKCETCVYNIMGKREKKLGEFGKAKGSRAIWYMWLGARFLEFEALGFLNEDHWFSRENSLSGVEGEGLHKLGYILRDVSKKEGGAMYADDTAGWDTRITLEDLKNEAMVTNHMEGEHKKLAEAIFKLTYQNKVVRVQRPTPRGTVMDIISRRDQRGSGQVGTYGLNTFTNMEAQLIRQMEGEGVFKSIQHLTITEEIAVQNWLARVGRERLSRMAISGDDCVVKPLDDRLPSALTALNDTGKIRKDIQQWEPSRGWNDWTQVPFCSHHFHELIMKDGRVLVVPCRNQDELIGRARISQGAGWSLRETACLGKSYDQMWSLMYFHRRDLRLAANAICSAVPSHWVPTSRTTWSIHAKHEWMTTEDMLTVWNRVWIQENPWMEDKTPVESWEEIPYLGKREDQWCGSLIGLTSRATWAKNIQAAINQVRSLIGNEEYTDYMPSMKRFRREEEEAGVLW

[6] = loss of viability in HepG2 cells – cell-based, CellTiter-Glo, cherry-picked, cytotoxicity control for Shn3 inhibitor project, dose response (AID 624134); format: functional
[7] = non-specific 3'UTR reporter inhibition in Clone20-Shn3RL – cell-based, Renilla luciferase, cherry-picked, counter-screen for Shn3 inhibitor project, dose response (AID 624133); format: functional
[8] = reduction of Shn3 3'UTR-driven luciferase in osteoblasts – cell-based, Clone20 osteoblasts, firefly luciferase, cherry-picked, dose response (AID 624132); format: functional;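 also: firefly luciferase luminescence from reporter carrying the Shn3 3'UTR in osteoblasts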

Cc1ccc(-n2nc3c(N4CCC(C(=O)NCc5ccc(C)o5)CC4)nnc(C)c3c2C)cc1
IC50 [1]: 23 µM (inactive)

Cc1cc(Nc2cccc(O)c2)c2ccccc2n1
EC50 [2]: 5.31 µM (active)

CCC(C)(C(=O)NC1CCCC1)N(CC1CCCO1)C(=O)c1ccc2c(c1)OCO2 (stereo unspecified)
AC50 (Cytochrome P450 2D6): 35.5 µM (inconclusive)
AC50 (Cytochrome P450 1A2): 39.8 µM (inconclusive)
Ki (fMet-Leu-Phe receptor): > 66.7 µM (inactive)
AC50 (Cytochrome P450 2C19): 5.62 µM (inconclusive)

CN(C)S(=O)(=O)c1ccc(C(=O)OCC(=O)c2ccc3c(c2)NC(=O)CO3)cc1
IC50 [1]: 29.3 µM (inactive)

CCn1cc(C(=O)NCc2ccc3c(c2)OCO3)c(=O)c2cc(F)c(N3CCN(C(=O)c4ccco4)CC3)cc21
EC50 (Streptokinase A): > 150 µM (not active)
EC50 [3]: 6.52 µM (active)
EC50 (Streptococcus): 20.8 µM (active)
IC50 [1]: 29.4 µM (inactive)

Cc1nn(-c2ccccc2)c2nc(C(F)(F)F)cc(O)c12
EC50 [2]: 6.68 µM (active)

COC(=O)c1[nH]c(C)c(C(=O)C2=C(O)C(=O)N(CCCN3CCOCC3)C2c2ccccn2)c1C (stereo unspecified)
Ki (fMet-Leu-Phe receptor): 9.7 µM (active)
IC50 (Protein skinhead-1): > 100 µM (inactive)

Cc1nc(CNS(=O)(=O)c2ccc3ccccc3c2)cs1
EC50 [4]: > 53 µM (inactive)
IC50 (Nonstructural protein 1): 37.7 µM (active)
IC50 [5]: > 47.1 µM (inactive)

COc1ccccc1C1C(C(=O)c2ccccc2)=C(O)C(=O)N1CCO (stereo unspecified)
AC50 (Cytochrome P450 1A2): 0.794 µM (inconclusive)
Ki (fMet-Leu-Phe receptor): 19.7 µM (inactive)
AC50 (Cytochrome P450 2C19): 39.8 µM (inconclusive)
AC50 (Cytochrome P450 2C9): 39.8 µM (inconclusive)

CCN(CC)C(=O)C1CCCN(Cc2cccc(Oc3ccccc3)c2)C1 (stereo unspecified)
EC50 [2]: 2.37 µM (active)

O=C(O)c1ccc(NS(=O)(=O)c2ccc3c(c2)C(=O)c2cc(S(=O)(=O)Nc4ccc(C(=O)O)cc4)ccc2-3)cc1
IC50 (Genome polyprotein): 95.9 µM (active)

CN(C)C(CNC(=O)c1ccccc1OCc1ccc(Cl)cc1)c1ccco1 (stereo unspecified)
EC50 [2]: 0.0947 µM (active)

O=C(CN1CC(=O)Oc2ccccc21)OCC(=O)c1ccc(Br)cc1
IC50 (Nonstructural protein 1): 1.61 µM (active)

C=CCn1c(-c2ccc(S(=O)(=O)N3CCOCC3)cc2)cs/c1=N\c1ccccc1
IC50 (Nonstructural protein 1): > 100 µM (active)
AC50 [6]: 40 µM (active)
AC50 [7]: 5.6 µM (active)
AC50 [8]: 1.52 µM (active)

Cc1n[nH]c(=S)n(/N=C/c2ccccn2)c1=O
IC50 (Nonstructural protein 1): 6.08 µM (active)

N#C/C(=C\c1cccc(Cl)c1)C(=O)c1ccccc1
IC50 (Genome polyprotein): 64.1 µM (active)
